Test [1] relates to C. albicans. Nature of the test: C. albicans colony forming units (candidacidal activity). It counts as cell-based. The settings on record: for C. albicans colony forming units (CFU): FIG. 1, incubation 2 hours at 37° C.; for relative potency in reducing C. albicans viability: FIG. 2, 10^−4M melanocortin peptides. As to the method:
C. albicans (clinical isolate) was obtained from the collection of the Department of Microbiology, Ospedale Maggiore di Milano and maintained on Sabouraud's agar slants and periodically transferred to Sabouraud's agar plates and incubated for 48 hours at 28° C. To prepare a stationary growth phase yeast, a colony was taken from the agar plate and transferred into 30 ml Sabouraud-dextrose broth and incubated for 72 hours at 32° C. Cells were centrifuged and suspended in Hank's balanced salt solution (“HBSS”) to the desired concentration. Viability, determined by the exclusion of 0.01% methylene blue, remained >98%.
C. albicans (1×10^6/ml in HBSS) was incubated in the presence or absence or α-MSH(1-13) (SEQ ID NO: 3) or (11-13) (SEQ ID NO: 1) at concentrations in the range of 10^−15 M to 10^−6 M for 2 hours at 37° C. Cells were then washed in cold distilled water and diluted with HBSS to a concentration of 100 organisms/ml. One-ml aliquots were dispensed on blood agar plates and incubated for 48 hours at 37° C. Organism viability was estimated from the number of colonies formed.
In subsequent experiments using familiar procedures we compared activity of α-MSH(4-10) (SEQ ID NO: 10), (6-13) (SEQ ID NO: 2), (11-13) (SEQ ID NO: 1), ACTH(1-39) (SEQ ID NO: 9), (18-39) (SEQ ID NO: 11) and fluconazole, the latter an established antifungal agent. Melanocortin peptides and fluconazole were tested in concentrations of 10^−6 M to 10^−4 M. There were at least six replicates for each concentration of peptide. […]

For test [2], the system named is C. albicans killing by human neutrophils. Description: C. albicans killing by human neutrophils. It counts as cell-based. The settings on record: 10^−12M to 10^−4M; 2 hours at 37° C.; p<0.01. As to the method: Venous blood (20 ml) from health volunteers was anticoagulated with heparin. Neutrophils were isolated using dextran sedimentation and Ficoll-Hypaque (Sigma Chemical Co., St. Louis, […]., USA) centrifugation. Erythrocytes were lysed via hypotonic shock. Neutrophils represented at least 97% of the cell suspension. Cell viability, estimated by trypan blue exclusion, was >98%. Neutrophils were suspended to a final concentration in HBSS.
C. albicans (1×10^6) were opsonized with human AB serum in a shaking water bath for 30 minutes at 37° C. […] After incubation, the culture tubes were placed on ice to stop growth and extracellular organisms were washed twice with centrifugation at 1000×g at 4° C. A 2.5% sodium desoxycholoate solution was added to obtain a suspension of 10^6 cells/ml. Two 1/100 serial dilutions in HBSS were made to obtain a final suspension of 100 cells/ml. Aliquots of 1 ml were dispensed on blood agar plates and incubated for 48 hours at 37° C. Colony forming units (CFUs) were counted at the end of the incubation period. Experiments were run in triplicate and repeated using blood from 5 different donors.

The subject of test [3] is C. albicans. Description: cAMP content of C. albicans (EIA). The class given is cell-based. Conditions: 10^−6 M; for cAMP content in the yeast: 3 minutes, permeabilized C. albicans. As to the method: C. albicans (10^6/ml), permeabilized with toluene/ethanol, were incubated at 37° C. with continuous shaking in the presence of 10^−6 M α-MSH(1-13) (SEQ ID NO: 3), (11-13), (SEQ ID NO: 1), forskolin, an agent known to increase intracellular cAMP, or in medium alone. The reaction was stopped after 3 minutes by the addition of ice cold ethanol, cAMP was measured in duplicate using a commercial enzyme immunoassay (EIA) kit (Amersham, United Kingdom) after extraction via the liquid-phase method according to manufacturer's instructions. The effect of forskolin (10^−6 M) on C. albicans colony formation was determined using the same procedure as for α-MSH peptides.

Test [4] deals with inflammation induced in the hind paw by kappa carrageenan. Description: Kappa carrageenan hind paw inflammation in spinal cord intact and transected mice. The class given is in vivo, BALB/c mice. The settings on record: for effect on carrageenan-induced paw swelling: spinal cord transected mice; for inhibition of inflammation induced in the hind paw: central administration, spinal cord intact mice. As to the method:
Because surgical dissection of trigeminal structures that innervate the ear of the mouse is very difficult, tests to learn whether descending neural pathways are essential to the anti-inflammatory activity of centrally administered α-MSH peptides were performed in mice with inflammation induced in a hind paw. In these experiments, each animal was anesthetized with pentobarbital sodium solution as above. Baseline foot pad thickness of both hind paws was measured with a spring-loaded micrometer (Swiss Precision Instruments, Los Angeles, Calif.). Paw thickness was expressed in units of 10^−3 cm; average thickness of unstimulated paws was 171.5×10^−3 cm across shipments of animals. Kappa carrageenan (Sigma) dissolved in saline (0.05%, 20 μl) was injected (28 gauge allergy test syringe) into one footpad, and saline (20 μl) was injected into the other. For the analyses, the increase in thickness of the control saline-injected paw of each animal was subtracted from that of the carrageenan-injected paw, to eliminate the influence of mechanical injury and volume of the injected fluid. […] Treatment with the locally acting steroid reduced swelling up to 29% (average, relative to saline controls) at 4.5 hr. after carrageenan.
However, a standardized crushing of lumbar vertebrae with a hemostat (Kelly) was effective in severing the cord; no deaths were caused by this treatment. […] The experiments were limited to 4.5 hr to reduce problems of bowel and bladder dysfunction. Immediately after the 4.5 hr measurements all mice were killed with an overdose of sodium pentobarbital.
Because of the size of the experiments and the requirement for several shipments of animals over time, several experiments were performed, each with complete treatment and control groups drawn from the same shipment of mice. Omnibus analysis of variance techniques (Dynastat, Washington, D.C.) were used to test overall differences among group means. Tukey's protected t test was used to compare individual means. Probability values of <0.05 were considered significant.

Test [5] has as its system N9 clone of murine microglial cells. Description: cAMP accumulation in N9 microglia. The class given is cell-based. Conditions: for cAMP accumulation: resting cells and cells co-incubated with LPS+IFN-γ; for concentration of strongest effect on cAMP accumulation: resting microglia, 1, 10, 50 μM tested. As to the method:
cAMP accumulation in N9 cells was measured as previously described. […] Reactions were stopped after 3 min by aspirating supernatants, immediately adding 1 mL ethanol at −20° C. and freezing. cAMP content in the ethanol-soluble fraction was measured using an enzyme immunoassay kit (Amersham).

Test [6] shares this test system. Nature of the test: Northern blot of TNF-α and iNOS mRNA in activated microglia. The class given is cell-based. The settings on record: peptide prior to LPS and IFN-γ. As to the method:
Total cellular RNA was extracted from 10^6 adherent microglial cells plated in six-well tissue culture plates (Corning). Electrophoresis of RNA samples (10 μg/lane) was performed in 1% agarose/2.2 M formaldehyde gels and the gels subsequently blotted onto nylon filters by capillary action and baked for 2 h before prehybridization. The cDNA fragments encoding murine TNF-α and mouse macrophage iNOS were ^32P-labeled using the Ready-To-Go DNA Labeling Kit (Pharmacia, Uppsala, Sweden) before hybridization of nylon filters and autoradiography. Blots were subsequently rehybridized with human glyceraldehyde-3-phosphate dehydrogenase (G-3-PDH) cDNA probe as an internal control (Clontech Laboratories, Inc., Palo Alto, Calif.).

As to Ac-Lys-Pro-Val-NH2 [α-MSH(11-13)], in test [1], the “C. albicans colony forming units (CFU)” value is reported as “greatly reduced” and the “relative potency in reducing C. albicans viability” value is recorded as “most effective”. In addition, in test [2], the “killing of C. albicans by human neutrophils” value was “enhanced the killing”. Moreover, in test [3], the “increase in cAMP relative to equimolar forskolin” value is recorded as “same order of magnitude” and the “cAMP content in the yeast” value is listed as “enhanced cAMP content”. Moreover, the “effect on carrageenan-induced paw swelling” value in test [4] (given intraperitoneally) is on record as “even more effective at reducing swelling”. Besides, the “effect on carrageenan-induced paw swelling” value in test [4] (given intraperitoneally, listed as tripeptide) is on record as “marked inhibitory effect on inflammation”. Also, in test [5], the cAMP accumulation result was “increased cAMP accumulation” and the “concentration of strongest effect on cAMP accumulation” value was found to be 50 µM. Moreover, the “transcription levels (mRNA) for TNF-α and iNOS” value in test [6] was “decrease in transcription levels”.

On to SYSMEHFRWGKPV [α-MSH(1-13)], for which, in test [1], the “C. albicans colony forming units (CFU)” value is “greatly reduced” and the “relative potency in reducing C. albicans viability” value was “most effective”. The “killing of C. albicans by human neutrophils” value in test [2] is “enhanced the killing”. In addition, in test [3], the “cAMP content in the yeast” value is “enhanced cAMP content”. The “inhibition of inflammation induced in the hind paw” value in test [4] (3 hr) was 57%. Besides, in test [4] (4.5 hr), the “inhibition of inflammation induced in the hind paw” value turned out to be 29%. Besides, the “effect on carrageenan-induced paw swelling” value in test [4] (centrally injected) is reported as “had no effect on paw swelling”. The “effect on carrageenan-induced paw swelling” value in test [4] (given intraperitoneally) is “significant, although smaller, inhibitory effect”. Further, the “cAMP accumulation in conjunction with LPS and IFN-γ” value in test [5] (peptide 10 μM with LPS+IFN-γ, forskolin 100 μM as comparison) was “more effective of the two”. In addition, in test [5], the cAMP accumulation entry is “increased cAMP accumulation” and the “concentration of strongest effect on cAMP accumulation” value worked out at 10 µM. Besides, in test [6], the “transcription levels (mRNA) for TNF-α and iNOS” value is “decrease in transcription levels”.

Values taken from patent US7115574B2, “System and method for support legacy operating system booting in a legacy-free system” (priority 2001, dated 2006).
